The results in this text go back to patent publication US20250059220A1, “SUBSTITUTED BENZOTHIOPHENE DERIVATIVES AND METHODS OF USE THEREOF” (Merck Sharp & Dohme LLC, priority 2021, published 2025).

Molecules are shown by their SMILES.

The target in assay [1] is human PTPN2 (1-387) (Homo sapiens (Human), UniProt P17706). As to the kind of experiment: Human PTPN2 Biochemical Assay. The settings on record: DiFMUP substrate. The essentials:
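Human PTPN2 (1-387) preincubated 30 min at RT with compound (10-point 3-fold series) in Tris pH 7.4 buffer with 0.5 mM DTT, then DiFMUP substrate added for 1 h at RT. Fluorescence at ex 360/em 460 nm, normalised to no-enzyme and enzyme controls; EC50 from 4-parameter fit.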

In assay [2] the target is human PTPN1 (1-435) (Homo sapiens (Human), UniProt P18031). Description: Human PTPN1 Biochemical Assay. The settings on record: DiFMUP substrate, read-out: PTP1B IC50. In short, it runs like this:
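Read-out is DiFMUP hydrolysis fluorescence (360 nm excitation, 460 nm emission) after 1 h at room temperature, following 30 min enzyme–compound preincubation.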

Chain of human PTPN2 (1-387) (P17706 other isoform, or with tags, fused parts or gaps): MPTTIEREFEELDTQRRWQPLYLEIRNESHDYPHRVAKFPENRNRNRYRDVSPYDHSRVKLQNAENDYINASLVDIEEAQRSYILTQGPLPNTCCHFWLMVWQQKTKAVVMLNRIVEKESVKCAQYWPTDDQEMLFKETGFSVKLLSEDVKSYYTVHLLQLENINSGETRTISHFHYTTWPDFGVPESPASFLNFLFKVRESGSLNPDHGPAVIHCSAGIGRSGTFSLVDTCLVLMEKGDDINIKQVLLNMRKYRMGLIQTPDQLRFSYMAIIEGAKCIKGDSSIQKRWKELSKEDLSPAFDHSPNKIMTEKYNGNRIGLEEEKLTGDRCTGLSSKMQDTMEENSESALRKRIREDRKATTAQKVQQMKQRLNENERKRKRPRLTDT
Chain of human PTPN1 (1-435) (P18031 whole entry): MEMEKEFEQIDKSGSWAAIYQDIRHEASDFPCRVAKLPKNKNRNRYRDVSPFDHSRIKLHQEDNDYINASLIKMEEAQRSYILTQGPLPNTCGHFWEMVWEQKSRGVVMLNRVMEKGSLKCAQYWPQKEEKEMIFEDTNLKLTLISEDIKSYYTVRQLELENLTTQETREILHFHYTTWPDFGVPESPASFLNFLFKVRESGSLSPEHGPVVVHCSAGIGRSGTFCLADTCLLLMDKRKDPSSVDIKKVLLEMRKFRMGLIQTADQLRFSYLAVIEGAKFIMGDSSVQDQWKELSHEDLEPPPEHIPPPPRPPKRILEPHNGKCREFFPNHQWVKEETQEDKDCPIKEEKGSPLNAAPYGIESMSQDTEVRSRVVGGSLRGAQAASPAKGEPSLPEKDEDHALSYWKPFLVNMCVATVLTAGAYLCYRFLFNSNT

Take `O=P(O)(O)C(F)(F)c1sc2c(OCCCC(F)(F)F)cc(-c3cnn[nH]3)cc2c1Br` [Compound 258, ((3-bromo-5-(1H-1,2,3-triazol-5-yl)-7-(4,4,4-trifluorobutoxy)benzo[b]thiophen-2-yl)difluoromethyl)phosphonic acid]: the half-maximal inhibitory concentration (IC50) in assay [1] was 8.39 nM; in assay [2], 4.3 nM.
For the compound `NC(=O)c1cc(OCc2cccc(C(F)(F)F)c2)c2sc(C(F)(F)P(=O)(O)O)c(Br)c2c1` [Compound 383], the results for the IC50 in assay [1] and in assay [2] were 79.6 nM and 92.3 nM, respectively.
On to `O=C(NCc1cncnc1)c1ccc2sc(C(F)(F)P(=O)(O)O)c(Br)c2c1` [Compound 42], for which the results for the IC50 in assay [1] and in assay [2] were 2380 nM and 1780 nM, respectively.
Regarding `NC(=O)c1cc(OCCCS(N)(=O)=O)c2sc(C(F)(F)P(=O)(O)O)c(Br)c2c1` [Compound 235, ((3-bromo-5-carbamoyl-7-(3-sulfamoylpropoxy)benzo[b]thiophen-2-yl)difluoromethyl)phosphonic acid], the half-maximal inhibitory concentration (IC50) is 16.6 nM in assay [1] and 20 nM in assay [2].
Consider `CS(=O)(=O)c1ccc(COc2cc(C(N)=O)cc3c(Br)c(C(F)(F)P(=O)(O)O)sc23)c(F)c1` [Compound 389], for which the results for the IC50 in assay [1] and in assay [2] were 7.8 nM and 14.1 nM, respectively.
Consider `O=C(N[C@H]1CC[C@H](C(F)(F)F)CC1)c1ccc2sc(C(F)(F)P(=O)(O)O)c(Br)c2c1` [Compound 52], for which the IC50 stood at 6820 nM in assay [1] and 5680 nM in assay [2].
Take `CC(C)(C#N)CCCOc1cc(C(N)=O)cc2c(Br)c(C(F)(F)P(=O)(O)O)sc12` [Compound 278]: the figures for the IC50 in assay [1] and in assay [2] were 17.4 nM and 16 nM, respectively.
For `O=P(O)(O)C(F)(F)c1sc2c(OCCCC(F)(F)F)c(F)ccc2c1Br` [Compound 231, ((3-bromo-6-fluoro-7-(4,4,4-trifluorobutoxy)benzo[b]thiophen-2-yl)difluoromethyl)phosphonic acid], the IC50 in assay [1] worked out at 989 nM; in assay [2], 879 nM.
For `NC(=O)c1cc(OCCC23CC(C2)C3)c2sc(C(F)(F)P(=O)(O)O)c(Br)c2c1` [Compound 293], the IC50 in assay [1] was determined as 619 nM; in assay [2], 246 nM.
For `O=C(NCC1CC1)c1ccc2sc(C(F)(F)P(=O)(O)O)c(Br)c2c1` [Compound 16], the IC50 in assay [1] was 7250 nM; in assay [2], 5120 nM.
As to `COc1ccc(COc2cc(C(N)=O)cc3c(Br)c(C(F)(F)P(=O)(O)O)sc23)c(C(F)(F)F)c1` [Compound 348], the IC50 stood at 75.7 nM in assay [1] and 177 nM in assay [2].
On to `N#Cc1ccc2cc(C(F)(F)P(=O)(O)O)sc2c1Br` [Compound 297, ((7-bromo-6-cyanobenzo[b]thiophen-2-yl)difluoromethyl)phosphonic acid], for which the IC50 turned out to be 26500 nM in assay [1] and 7350 nM in assay [2].
The like results for `NC(=O)c1cc(OCC2CCC(F)(F)CC2)c2sc(C(F)(F)P(=O)(O)O)c(Br)c2c1` [Compound 253] were, in that order, 84.6 nM and 118 nM.
`O=C(Nc1ccccc1)Nc1ccc2sc(C(F)(F)P(=O)(O)O)c(Br)c2c1` [Compound 219, ((3-bromo-5-(3-phenylureido)benzo[b]thiophen-2-yl)difluoromethyl)phosphonic acid]: the IC50 in assay [1] was 3740 nM; in assay [2], 4660 nM.
With `O=C(NC1CCCOC1)c1ccc2sc(C(F)(F)P(=O)(O)O)c(Br)c2c1` (stereo not drawn) [Compound 127], the IC50 in assay [1] was 6700 nM; in assay [2] it was 5140 nM.
With `N#CC1(c2ccc(NC(=O)c3ccc4sc(C(F)(F)P(=O)(O)O)c(Br)c4c3)cc2)CCCCC1` [Compound 21], the IC50 in assay [1] was 2140 nM; in assay [2], 1410 nM.
Take `NC(=O)c1cc(OCCCC2(S(N)(=O)=O)CC2)c2sc(C(F)(F)P(=O)(O)O)c(Br)c2c1` [Compound 335]: the IC50 in assay [1] amounted to 4.4 nM; in assay [2], 5.4 nM.
Consider `CC(C)CNC(=O)c1ccc2sc(C(F)(F)P(=O)(O)O)c(Br)c2c1` [Compound 55], for which the IC50 in assay [1] came out at 9700 nM; in assay [2] it was 7620 nM.
`O=P(O)(O)C(F)(F)c1sc2c(NCCC3CCCCC3)cccc2c1Br` [Compound 223, ((3-bromo-7-((2-cyclohexylethyl)amino)benzo[b]thiophen-2-yl)difluoromethyl)phosphonic acid]: the IC50 in assay [1] worked out at 3210 nM; in assay [2] it was 2440 nM.
For `CN1C[C@H]2[C@H](CNC(=O)c3ccc4sc(C(F)(F)P(=O)(O)O)c(Br)c4c3)[C@H]2c2ccccc21` [Compound 78], the values for the IC50 in assay [1] and in assay [2] were 1030 nM and 1090 nM, respectively.
Turning to `N#Cc1cccc2c(Br)c(C(F)(F)P(=O)(O)O)sc12` [Compound 8, ((3-bromo-7-cyanobenzo[b]thiophen-2-yl)difluoromethyl)phosphonic acid], the IC50 worked out at 3940 nM in assay [1] and 3270 nM in assay [2].
In the same order, the values of `N#Cc1c(C(F)(F)P(=O)(O)O)sc2c(OCCCS(N)(=O)=O)cc(-c3nc[nH]n3)cc12` [Compound 457, ((3-cyano-7-(3-sulfamoylpropoxy)-5-(1H-1,2,4-triazol-3-yl)benzo[b]thiophen-2-yl)difluoromethyl)phosphonic acid] are 2.5 nM and 2.5 nM.
For `Cc1[nH]cnc1CNC(=O)c1ccc2sc(C(F)(F)P(=O)(O)O)c(Br)c2c1` [Compound 217, ((3-bromo-5-(((5-methyl-1H-imidazol-4-yl)methyl)carbamoyl)benzo[b]thiophen-2-yl)difluoromethyl)phosphonic acid], the figures for the IC50 in assay [1] and in assay [2] were 7060 nM and 1840 nM, respectively.
Consider `N#CCCCCNC(=O)c1ccc2sc(C(F)(F)P(=O)(O)O)c(Br)c2c1` [Compound 46], for which the IC50 in assay [1] came to 8500 nM; in assay [2], 6230 nM.
For the compound `[2H]C([2H])([2H])NC(=O)c1cc(OCCCS(C)(=O)=O)c2sc(C(F)(F)P(=O)(O)O)c(Br)c2c1` [Compound 304], the IC50 turned out to be 8.9 nM in assay [1] and 9.8 nM in assay [2].
In the same order, the values of `N#Cc1c(C(F)(F)P(=O)(O)O)sc2ccc(C(=O)NCc3cccnn3)cc12` [Compound 172] are 581 nM and 663 nM.
On to `NC(=O)c1cc(OCc2ccc(C(F)(F)F)cc2)c2sc(C(F)(F)P(=O)(O)O)c(Br)c2c1` [Compound 345], for which the IC50 was found to be 16.3 nM in assay [1] and 29.5 nM in assay [2].
Take `N#Cc1cc(C(=O)NCc2c[nH]nn2)cc2c(Br)c(C(F)(F)P(=O)(O)O)sc12` [Compound 162]: the IC50 turned out to be 222 nM in assay [1] and 244 nM in assay [2].
As to `COc1ccc(COc2cc(C(N)=O)cc3c(Br)c(C(F)(F)P(=O)(O)O)sc23)cc1F` [Compound 349], the figures for the IC50 in assay [1] and in assay [2] were 22 nM and 26.9 nM, respectively.
Take `O=C(NCCn1cccn1)c1ccc2sc(C(F)(F)P(=O)(O)O)c(Br)c2c1` [Compound 144]: the results for the IC50 in assay [1] and in assay [2] were 7170 nM and 1410 nM, respectively.
Consider `NC(=O)c1ccc2sc(C(F)(F)P(=O)(O)O)c(Br)c2c1` [Compound 2], for which the values for the IC50 in assay [1] and in assay [2] were 5320 nM and 3230 nM, respectively.
For the compound `CC(NC(=O)c1ccc2sc(C(F)(F)P(=O)(O)O)c(Br)c2c1)c1cccc2ccccc12` (stereo not drawn) [Compound 71], the IC50 in assay [1] came out at 3530 nM; in assay [2], 3650 nM.
Consider `O=C(Nc1cccc(C(=O)N2CCCC2)c1)c1ccc2sc(C(F)(F)P(=O)(O)O)c(Br)c2c1` [Compound 101], for which the IC50 amounted to 2360 nM in assay [1] and 1780 nM in assay [2].
In the case of `NC(=O)c1cc(OCCCCC(F)(F)C(F)(F)F)c2sc(C(F)(F)P(=O)(O)O)c(Br)c2c1` [Compound 285], the IC50 in assay [1] was 77.9 nM; in assay [2], 45 nM.
On to `CC(C)(O)c1ccc(CNC(=O)c2ccc3sc(C(F)(F)P(=O)(O)O)c(Br)c3c2)cn1` [Compound 92], for which the IC50 stood at 3160 nM in assay [1] and 1940 nM in assay [2].
In the same order, the values of `COCCCCNC(=O)c1ccc2sc(C(F)(F)P(=O)(O)O)c(Br)c2c1` [Compound 45] are 5170 nM and 4080 nM.
Consider `O=C(Nc1ccc(OCC2CCCO2)cc1)c1ccc2sc(C(F)(F)P(=O)(O)O)c(Br)c2c1` (stereo not drawn) [Compound 26], for which the IC50 in assay [1] stood at 2340 nM; in assay [2], 1720 nM.
For `NC(=O)c1cc(OCCC2CCCS2(=O)=O)c2sc(C(F)(F)P(=O)(O)O)c(Br)c2c1` (single isomer, unassigned) [Compound 372], the IC50 in assay [1] is 19.7 nM; in assay [2], 18.2 nM.
In the case of `NC(=O)c1cc(OCC2CC2(F)F)c2sc(C(F)(F)P(=O)(O)O)c(Br)c2c1` (stereo not drawn) [Compound 316], the IC50 in assay [1] was 50.4 nM; in assay [2] it was 68.1 nM.
As to `O=C(NCCn1cncn1)c1ccc2sc(C(F)(F)P(=O)(O)O)c(Br)c2c1` [Compound 146], the IC50 in assay [1] is 7470 nM; in assay [2], 3650 nM.
Consider `NC(=O)c1cc(OCCCOC(F)(F)F)c2sc(C(F)(F)P(=O)(O)O)c(Br)c2c1` [Compound 252], for which the IC50 came to 106 nM in assay [1] and 110 nM in assay [2].
The like results for `CNC(=O)c1cc(OCCC2CC2(F)F)c2sc(C(F)(F)P(=O)(O)O)c(Br)c2c1` (stereo not drawn) [Compound 322] were, in that order, 29.2 nM and 20.9 nM.
`CC(NC(=O)c1ccc2sc(C(F)(F)P(=O)(O)O)c(Br)c2c1)c1cccnn1` (single isomer, unassigned) [Compound 225, (R or S)-((3-bromo-5-((1-(pyridazin-3-yl)ethyl)carbamoyl)benzo[b]thiophen-2-yl)difluoromethyl)phosphonic acid]: the IC50 was 2200 nM in assay [1] and 2410 nM in assay [2].
`CNS(=O)(=O)CCCOc1cc(C(N)=O)cc2c(Br)c(C(F)(F)P(=O)(O)O)sc12` [Compound 373]: the IC50 in assay [1] is 12 nM; in assay [2], 8.6 nM.
In the same order, the values of `C=C(C)C#Cc1cc(C(N)=O)cc2c(Br)c(C(F)(F)P(=O)(O)O)sc12` [Compound 210] are 13.7 nM and 132 nM.
